In patent US10537545B2, “Ceramide derivatives as anticancer agents” (Rutgers, The State University of New Jersey, priority 2015, dated 2020):
pIC50: −log10 of the molar value.

Tests used:
[1] = test system: MCF7; details: reported in Andrianasolo et al., J. Nat. Prod. 2011, read-out: IC50, growth inhibition of MCF7 (breast cancer); cited from earlier work
[2] = test system: HELA; details: reported in Andrianasolo et al., J. Nat. Prod. 2011, read-out: IC50, growth inhibition of HeLa (cervical cancer); cited from earlier work
[3] = test system: HELA; test: Cytotoxicity assay, HELA cancer cell line; type: cell-based; details: for CTRL HELA (growth relative to control): control = 1; for Growth HELA: control growth 0.55
Method: (§1) Cytotoxicity Assay. […] Cells were treated with varying concentrations of compounds. The IC50 were measured. […] In order to verify that assumption an LDH (Lactate Dehydrogenase) assay was performed.

[4] = test system: MCF7; test: Cytotoxicity assay, MCF7 cancer cell line; type: cell-based, human; details: for CTRL MCF7 (growth relative to control): control = 1; for Growth MCF7: control growth 0.7
Method: as §1

[5] = molecular target: HDAC5 (Homo sapiens, UniProt Q9UQL6); test: HDAC inhibitor assay, HDAC5; type: biochemical; details: up to 50 or 100 μM
Excerpt: (§2) Compound VIII was subjected to enzymatic inhibition test against the class I (HDAC1, HDAC2, HDAC3 and HDAC8), the class II A (HDAC4, HDAC5, HDAC7 and HDAC9) and the class II B (HDAC6) enzymes. HDAC inhibitors Trichostatin A (TSA) and TMP269 (TMP) were used as reference compounds.

[6] = molecular target: HDAC4 (Homo sapiens, UniProt P56524); test: HDAC inhibitor assay, HDAC4; type: biochemical; details: up to 50 or 100 μM
Excerpt: as §2

[7] = molecular target: T1, HDAC7 (Homo sapiens, UniProt Q8WUI4); test: HDAC inhibitor assay, HDAC7; type: biochemical; details: up to 50 or 100 μM
T1 sequence (Q8WUI4 1-952): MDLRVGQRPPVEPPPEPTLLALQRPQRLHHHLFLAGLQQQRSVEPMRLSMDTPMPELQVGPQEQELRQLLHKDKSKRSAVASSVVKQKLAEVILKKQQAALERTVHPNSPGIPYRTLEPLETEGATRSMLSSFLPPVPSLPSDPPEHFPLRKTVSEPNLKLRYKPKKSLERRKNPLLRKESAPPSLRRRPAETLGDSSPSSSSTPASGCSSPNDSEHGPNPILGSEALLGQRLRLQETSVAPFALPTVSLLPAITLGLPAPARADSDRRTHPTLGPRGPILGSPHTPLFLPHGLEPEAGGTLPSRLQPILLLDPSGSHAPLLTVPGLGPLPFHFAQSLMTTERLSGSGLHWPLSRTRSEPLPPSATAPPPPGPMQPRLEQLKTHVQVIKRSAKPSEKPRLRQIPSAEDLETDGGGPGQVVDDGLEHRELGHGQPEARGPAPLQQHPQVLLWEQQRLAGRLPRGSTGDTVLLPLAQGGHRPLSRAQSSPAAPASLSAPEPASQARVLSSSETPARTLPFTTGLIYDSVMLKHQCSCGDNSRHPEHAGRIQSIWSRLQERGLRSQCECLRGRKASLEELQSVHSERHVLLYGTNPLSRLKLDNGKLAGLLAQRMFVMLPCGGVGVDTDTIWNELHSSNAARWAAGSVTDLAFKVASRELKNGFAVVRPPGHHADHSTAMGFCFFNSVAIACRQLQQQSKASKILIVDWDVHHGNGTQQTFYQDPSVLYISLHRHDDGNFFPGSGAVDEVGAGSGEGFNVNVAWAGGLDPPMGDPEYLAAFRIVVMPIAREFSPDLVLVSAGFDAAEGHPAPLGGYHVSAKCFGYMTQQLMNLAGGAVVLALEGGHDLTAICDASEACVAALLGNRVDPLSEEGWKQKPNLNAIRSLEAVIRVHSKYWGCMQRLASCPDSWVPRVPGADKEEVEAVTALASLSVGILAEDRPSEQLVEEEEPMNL
Excerpt: as §2

[8] = molecular target: T2, HDAC8 (Homo sapiens, UniProt Q9BY41); test: HDAC inhibitor assay, HDAC8; type: biochemical; details: up to 50 or 100 μM
T2 sequence (Q9BY41 1-377): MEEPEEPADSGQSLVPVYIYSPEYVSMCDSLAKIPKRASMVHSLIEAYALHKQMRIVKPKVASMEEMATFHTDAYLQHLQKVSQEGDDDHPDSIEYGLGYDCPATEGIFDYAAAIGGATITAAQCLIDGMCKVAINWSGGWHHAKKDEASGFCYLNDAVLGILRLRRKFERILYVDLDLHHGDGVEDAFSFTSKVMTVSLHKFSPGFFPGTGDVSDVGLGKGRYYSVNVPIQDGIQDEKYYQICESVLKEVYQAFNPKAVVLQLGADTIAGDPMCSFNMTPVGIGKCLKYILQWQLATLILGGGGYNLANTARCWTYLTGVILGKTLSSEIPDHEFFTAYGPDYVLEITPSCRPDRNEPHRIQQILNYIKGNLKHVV
Excerpt: as §2

[9] = molecular target: T3, HDAC6 (Homo sapiens, UniProt Q9UBN7); test: HDAC inhibitor assay, HDAC6; type: biochemical; details: class II B HDAC6; read-out: IC50, inhibition of HDAC6
T3 sequence (Q9UBN7 1-1215): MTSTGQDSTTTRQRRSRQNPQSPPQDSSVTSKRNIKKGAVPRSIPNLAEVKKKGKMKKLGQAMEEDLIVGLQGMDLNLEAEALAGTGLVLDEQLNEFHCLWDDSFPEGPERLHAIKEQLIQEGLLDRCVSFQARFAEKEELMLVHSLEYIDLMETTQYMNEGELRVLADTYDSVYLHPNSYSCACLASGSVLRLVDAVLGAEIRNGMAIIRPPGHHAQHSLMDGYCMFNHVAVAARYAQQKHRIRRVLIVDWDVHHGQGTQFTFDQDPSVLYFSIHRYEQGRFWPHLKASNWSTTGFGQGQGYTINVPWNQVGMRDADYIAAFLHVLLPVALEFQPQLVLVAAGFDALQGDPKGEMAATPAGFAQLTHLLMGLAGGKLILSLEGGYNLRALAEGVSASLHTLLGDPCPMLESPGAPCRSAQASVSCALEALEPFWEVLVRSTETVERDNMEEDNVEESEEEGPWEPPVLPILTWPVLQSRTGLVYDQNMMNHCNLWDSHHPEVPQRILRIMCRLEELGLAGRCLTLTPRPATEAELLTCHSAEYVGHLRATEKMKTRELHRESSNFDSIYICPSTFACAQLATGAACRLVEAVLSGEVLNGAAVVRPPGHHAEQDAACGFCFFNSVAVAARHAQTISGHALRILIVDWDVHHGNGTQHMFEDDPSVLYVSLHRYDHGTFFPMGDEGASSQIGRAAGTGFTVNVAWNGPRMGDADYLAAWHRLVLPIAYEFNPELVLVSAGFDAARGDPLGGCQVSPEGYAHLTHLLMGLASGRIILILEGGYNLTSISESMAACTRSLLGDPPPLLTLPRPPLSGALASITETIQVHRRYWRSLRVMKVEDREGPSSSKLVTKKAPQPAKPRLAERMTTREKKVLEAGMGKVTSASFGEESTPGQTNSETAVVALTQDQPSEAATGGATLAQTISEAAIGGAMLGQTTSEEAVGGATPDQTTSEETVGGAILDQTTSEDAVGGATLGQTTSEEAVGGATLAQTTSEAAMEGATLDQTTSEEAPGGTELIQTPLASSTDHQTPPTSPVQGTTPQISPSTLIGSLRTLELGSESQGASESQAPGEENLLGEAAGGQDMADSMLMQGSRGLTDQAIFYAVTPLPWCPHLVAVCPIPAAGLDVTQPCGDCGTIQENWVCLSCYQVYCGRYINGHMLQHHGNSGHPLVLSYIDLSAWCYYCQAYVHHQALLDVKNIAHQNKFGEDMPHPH
Excerpt: as §2

[10] = molecular target: HDAC3 (Homo sapiens, UniProt O15379); test: HDAC inhibitor assay, HDAC3; type: biochemical; details: up to 50 or 100 μM
Excerpt: as §2

[11] = molecular target: HDAC2 (Homo sapiens, UniProt Q92769); test: HDAC inhibitor assay, HDAC2; type: biochemical; details: up to 50 or 100 μM
Excerpt: as §2

[12] = molecular target: HDAC1 (Homo sapiens, UniProt Q13547); test: HDAC inhibitor assay, HDAC1; type: biochemical; details: up to 50 or 100 μM
Excerpt: as §2

[13] = molecular target: HDAC9 (Homo sapiens, UniProt Q9UKV0); test: HDAC inhibitor assay, HDAC9; type: biochemical; details: up to 50 or 100 μM
Excerpt: as §2

Sequence of HDAC2 (Q92769 whole entry, species assumed): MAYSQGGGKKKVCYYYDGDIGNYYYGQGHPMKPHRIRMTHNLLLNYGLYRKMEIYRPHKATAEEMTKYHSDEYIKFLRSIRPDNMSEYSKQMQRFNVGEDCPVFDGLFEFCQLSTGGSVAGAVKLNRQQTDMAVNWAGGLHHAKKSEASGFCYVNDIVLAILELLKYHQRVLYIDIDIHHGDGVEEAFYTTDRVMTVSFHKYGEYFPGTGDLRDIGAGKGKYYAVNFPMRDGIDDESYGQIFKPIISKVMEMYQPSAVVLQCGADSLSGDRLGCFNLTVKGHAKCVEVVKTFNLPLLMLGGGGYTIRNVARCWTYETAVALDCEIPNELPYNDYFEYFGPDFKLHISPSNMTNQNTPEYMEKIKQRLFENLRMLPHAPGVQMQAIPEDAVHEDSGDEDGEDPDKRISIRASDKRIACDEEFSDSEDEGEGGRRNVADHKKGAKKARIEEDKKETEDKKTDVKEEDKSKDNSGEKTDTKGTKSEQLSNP
Sequence of HDAC5 (Q9UQL6 whole entry, species assumed): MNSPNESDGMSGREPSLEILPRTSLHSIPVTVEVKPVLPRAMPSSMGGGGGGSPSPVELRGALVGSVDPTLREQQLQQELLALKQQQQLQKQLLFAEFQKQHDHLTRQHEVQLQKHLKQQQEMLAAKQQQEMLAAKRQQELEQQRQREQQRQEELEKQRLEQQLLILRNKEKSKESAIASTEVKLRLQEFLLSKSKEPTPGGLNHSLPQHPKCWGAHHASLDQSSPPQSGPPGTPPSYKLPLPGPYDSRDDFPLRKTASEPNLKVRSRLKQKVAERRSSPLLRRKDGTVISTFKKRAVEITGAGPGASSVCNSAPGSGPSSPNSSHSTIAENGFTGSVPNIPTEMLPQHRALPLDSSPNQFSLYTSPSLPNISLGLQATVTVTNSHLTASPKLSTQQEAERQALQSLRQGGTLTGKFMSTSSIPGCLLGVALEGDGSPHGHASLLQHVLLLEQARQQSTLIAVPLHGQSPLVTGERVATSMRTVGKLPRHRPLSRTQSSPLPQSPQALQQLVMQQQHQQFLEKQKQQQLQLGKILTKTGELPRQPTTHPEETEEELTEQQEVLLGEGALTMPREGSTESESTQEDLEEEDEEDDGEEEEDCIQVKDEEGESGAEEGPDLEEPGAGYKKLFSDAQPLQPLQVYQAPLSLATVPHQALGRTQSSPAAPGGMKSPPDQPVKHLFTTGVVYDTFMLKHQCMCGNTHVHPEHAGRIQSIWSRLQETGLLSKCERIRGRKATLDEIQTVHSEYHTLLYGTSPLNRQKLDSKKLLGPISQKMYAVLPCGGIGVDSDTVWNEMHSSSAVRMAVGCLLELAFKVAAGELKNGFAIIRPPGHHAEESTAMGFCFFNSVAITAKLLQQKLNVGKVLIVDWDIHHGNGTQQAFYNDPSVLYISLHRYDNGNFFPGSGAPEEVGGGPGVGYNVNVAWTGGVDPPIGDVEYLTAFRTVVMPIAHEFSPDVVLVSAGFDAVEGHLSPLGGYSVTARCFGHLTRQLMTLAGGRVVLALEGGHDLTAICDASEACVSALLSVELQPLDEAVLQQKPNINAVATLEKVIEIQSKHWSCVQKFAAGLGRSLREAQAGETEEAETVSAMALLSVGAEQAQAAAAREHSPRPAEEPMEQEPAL
Sequence of HDAC1 (Q13547 whole entry, species assumed): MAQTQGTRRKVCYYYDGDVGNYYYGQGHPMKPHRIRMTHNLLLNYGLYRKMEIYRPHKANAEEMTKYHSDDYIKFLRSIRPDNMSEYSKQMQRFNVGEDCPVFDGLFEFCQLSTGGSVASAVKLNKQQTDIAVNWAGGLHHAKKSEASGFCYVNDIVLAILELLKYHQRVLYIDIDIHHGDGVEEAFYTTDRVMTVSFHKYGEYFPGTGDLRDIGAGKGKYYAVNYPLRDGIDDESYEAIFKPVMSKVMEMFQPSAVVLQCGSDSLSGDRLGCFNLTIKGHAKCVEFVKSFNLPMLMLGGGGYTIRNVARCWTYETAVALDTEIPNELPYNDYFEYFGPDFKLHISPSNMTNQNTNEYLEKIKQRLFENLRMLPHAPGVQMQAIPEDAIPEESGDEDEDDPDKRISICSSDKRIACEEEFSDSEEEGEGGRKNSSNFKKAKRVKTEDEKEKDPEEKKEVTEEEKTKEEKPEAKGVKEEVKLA
Sequence of HDAC9 (Q9UKV0 whole entry, species assumed): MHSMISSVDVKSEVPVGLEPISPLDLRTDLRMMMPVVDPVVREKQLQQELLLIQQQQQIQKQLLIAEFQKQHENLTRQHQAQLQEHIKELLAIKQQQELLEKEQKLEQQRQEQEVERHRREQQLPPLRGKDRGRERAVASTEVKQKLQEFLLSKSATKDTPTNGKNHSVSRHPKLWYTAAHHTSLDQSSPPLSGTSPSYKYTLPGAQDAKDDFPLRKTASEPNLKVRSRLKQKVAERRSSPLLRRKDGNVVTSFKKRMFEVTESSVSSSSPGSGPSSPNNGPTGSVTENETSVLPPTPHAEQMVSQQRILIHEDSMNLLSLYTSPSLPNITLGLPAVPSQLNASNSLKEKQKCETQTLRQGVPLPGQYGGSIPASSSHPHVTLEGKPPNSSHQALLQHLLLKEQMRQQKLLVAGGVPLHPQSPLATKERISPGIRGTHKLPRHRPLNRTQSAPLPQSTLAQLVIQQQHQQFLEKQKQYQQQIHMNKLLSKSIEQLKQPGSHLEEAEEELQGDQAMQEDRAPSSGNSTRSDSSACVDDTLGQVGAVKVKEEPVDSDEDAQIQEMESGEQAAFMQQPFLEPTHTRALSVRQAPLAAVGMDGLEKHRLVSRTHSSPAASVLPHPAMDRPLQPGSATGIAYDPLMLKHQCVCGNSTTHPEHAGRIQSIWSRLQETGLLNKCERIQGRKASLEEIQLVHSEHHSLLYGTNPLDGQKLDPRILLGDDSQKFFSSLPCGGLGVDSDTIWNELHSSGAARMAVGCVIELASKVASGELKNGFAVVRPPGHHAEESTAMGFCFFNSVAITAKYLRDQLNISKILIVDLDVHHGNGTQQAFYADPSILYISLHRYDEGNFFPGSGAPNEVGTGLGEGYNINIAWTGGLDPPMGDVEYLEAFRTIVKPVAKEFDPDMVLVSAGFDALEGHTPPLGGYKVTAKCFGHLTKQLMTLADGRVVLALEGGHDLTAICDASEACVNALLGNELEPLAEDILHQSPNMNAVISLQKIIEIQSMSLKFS
Sequence of HDAC3 (O15379 whole entry, species assumed): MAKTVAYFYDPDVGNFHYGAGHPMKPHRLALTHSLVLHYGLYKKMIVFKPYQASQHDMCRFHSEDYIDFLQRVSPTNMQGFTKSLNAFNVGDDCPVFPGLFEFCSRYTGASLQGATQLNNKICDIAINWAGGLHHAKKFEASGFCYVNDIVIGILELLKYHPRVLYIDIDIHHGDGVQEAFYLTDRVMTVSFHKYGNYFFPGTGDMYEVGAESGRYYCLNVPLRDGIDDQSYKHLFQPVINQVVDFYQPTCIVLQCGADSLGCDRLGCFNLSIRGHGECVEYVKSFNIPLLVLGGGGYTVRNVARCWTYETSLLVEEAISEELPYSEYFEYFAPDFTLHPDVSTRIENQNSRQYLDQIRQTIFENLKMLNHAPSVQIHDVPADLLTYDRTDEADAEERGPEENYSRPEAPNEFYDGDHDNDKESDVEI
Sequence of HDAC3 (Q9Y618 395-489 partner limits assumed, species assumed): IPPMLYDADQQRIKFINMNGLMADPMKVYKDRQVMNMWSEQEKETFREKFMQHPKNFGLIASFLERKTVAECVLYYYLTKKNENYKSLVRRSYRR
Sequence of HDAC4 (P56524 whole entry, species assumed): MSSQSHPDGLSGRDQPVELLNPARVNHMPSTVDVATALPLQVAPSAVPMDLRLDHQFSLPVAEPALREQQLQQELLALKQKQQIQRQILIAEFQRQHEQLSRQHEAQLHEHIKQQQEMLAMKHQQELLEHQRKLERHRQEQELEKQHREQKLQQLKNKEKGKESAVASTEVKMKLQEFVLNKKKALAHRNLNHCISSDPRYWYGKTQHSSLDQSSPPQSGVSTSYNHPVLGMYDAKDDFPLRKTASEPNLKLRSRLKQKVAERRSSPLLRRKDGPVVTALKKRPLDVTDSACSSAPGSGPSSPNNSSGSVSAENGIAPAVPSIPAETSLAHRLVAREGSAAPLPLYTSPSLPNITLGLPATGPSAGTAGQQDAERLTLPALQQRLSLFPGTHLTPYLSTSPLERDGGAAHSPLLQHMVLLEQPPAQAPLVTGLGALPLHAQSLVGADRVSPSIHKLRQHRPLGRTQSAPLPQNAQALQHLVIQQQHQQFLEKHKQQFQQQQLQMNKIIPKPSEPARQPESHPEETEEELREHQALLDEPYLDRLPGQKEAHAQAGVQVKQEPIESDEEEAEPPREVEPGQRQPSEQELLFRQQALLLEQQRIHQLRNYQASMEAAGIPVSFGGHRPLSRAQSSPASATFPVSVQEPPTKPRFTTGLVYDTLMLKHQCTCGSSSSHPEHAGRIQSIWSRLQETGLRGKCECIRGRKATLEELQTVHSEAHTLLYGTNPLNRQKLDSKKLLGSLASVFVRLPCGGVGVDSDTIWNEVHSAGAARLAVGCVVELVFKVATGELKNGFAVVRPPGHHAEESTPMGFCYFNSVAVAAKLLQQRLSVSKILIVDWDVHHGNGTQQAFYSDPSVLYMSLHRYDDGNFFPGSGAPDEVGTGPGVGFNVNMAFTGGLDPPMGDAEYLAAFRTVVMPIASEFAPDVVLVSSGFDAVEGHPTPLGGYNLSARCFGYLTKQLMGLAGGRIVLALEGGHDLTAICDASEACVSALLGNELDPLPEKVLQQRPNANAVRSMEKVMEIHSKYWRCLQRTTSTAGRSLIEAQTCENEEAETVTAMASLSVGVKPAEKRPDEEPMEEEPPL

| Compound | pIC50 [1] | pIC50 [2] | CTRL HELA (growth relative to control) ([3]; 72 μg*0.01/ml) | Growth HELA ([3]; 72 μg*0.01/ml) | CTRL HELA (growth relative to control) ([3]; 360 μg*0.01/ml) | Growth HELA ([3]; 360 μg*0.01/ml) | CTRL MCF7 (growth relative to control) ([4]; 72 μg*0.01/ml) | Growth MCF7 ([4]; 72 μg*0.01/ml) | CTRL MCF7 (growth relative to control) ([4]; 360 μg*0.01/ml) | Growth MCF7 ([4]; 360 μg*0.01/ml) | Inhibition of HDAC5 [5] | Inhibition of HDAC4 [6] | Inhibition of HDAC7 [7] | Inhibition of HDAC8 [8] | pIC50 [9] | Inhibition of HDAC3 [10] | Inhibition of HDAC2 [11] | Inhibition of HDAC1 [12] | Inhibition of HDAC9 [13] |
| --- | --- | --- | --- | --- | --- | --- | --- | --- | --- | --- | --- | --- | --- | --- | --- | --- | --- | --- | --- |
| CCC/C=C\C/C=C\CCC(=O)O[C@@H](COC(=O)CCCCCCCCCCCCC)[C@H](O)[C@H](CO)NC(=O)CCCCCCCCCCC [compound 2] | 6.70 | 6.30 | – | – | – | – | – | – | – | – | – | – | – | – | – | – | – | – | – |
| CCC/C=C\C/C=C\C/C=C\CCCCC(=O)O[C@@H](COC(=O)CCCCCCCCCCCCCCC)[C@H](O)[C@H](CO)NC(=O)CCCCCCCCCCC (relative stereo) [compound 1] | 7.00 | 6.40 | 0.78 | 0.43 | 0.56 | 0.31 | 0.42 | 0.29 | 0.15 | 0.11 | – | – | – | – | – | – | – | – | – |
| C=C1CC[C@@H]2O[C@@]2(C)CC[C@H](/C(=C/CC2OC2(C)C)CO)[C@H]1C(=O)OC (stereo partly drawn) [compound VIII] | – | – | – | – | – | – | – | – | – | – | did not significantly inhibit | did not significantly inhibit | did not significantly inhibit | did not significantly inhibit | ~4.10 | did not significantly inhibit | did not significantly inhibit | did not significantly inhibit | did not significantly inhibit |
